Measurements from article PMC4388811, “Co-Solvents as Stabilizing Agents during Heterologous Overexpression in Escherichia coli – Application to Chlamydial Penicillin-Binding Protein 6” (PLoS ONE, 2015).

Target: T1, PBP6Cp (Chlamydia pneumoniae, UniProt A0A0F7X2J0)
T1 construct: native N-terminal signal peptide and C-terminal transmembrane domain removed; OmpA leader (cleaved by E. coli signal peptidase I); C-terminal Strep tag kept; periplasmic expression in E. coli C43(DE3) with betaine
Experiment: TLC of lipid II DD-carboxypeptidase reaction
Type: biochemical
Conditions: lipid II substrate; 50 mM MES pH 5.5, 2 mM MgCl2, 20% DMSO, 37 C, 4 h; inhibitor concentration not given; active-site serine acylation (covalent) described as general beta-lactam mechanism

SMILES: CC1(C)S[C@@H]2[C@H](NC(=O)Cc3ccccc3)C(=O)N2[C@H]1C(=O)O [penicillin G]
- TLC of lipid II DD-carboxypeptidase reaction: DD-carboxypeptidase activity of wild type PBP6Cp was stalled in the presence of penicillin G
